Data: US20260355212A1 (priority 2022, published 2026)
Read-outs that look alike come from different tables or passages of the source.

How the values were obtained:
[1] = target: SARS-CoV-2 Mpro (Severe acute respiratory syndrome coronavirus 2, UniProt P0DTD1); experiment: SARS-CoV-2 Mpro enzymatic inhibition assay (fluorescence); format: biochemical
Method in brief: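 Recombinant Mpro expressed in E. coli was preincubated 30 min at room temperature with 10-point, 3-fold serially diluted compound in duplicate. Fluorogenic substrate was then added and incubated 60 min at 30° C, and fluorescence read at Ex/Em 340/490 nm. IC50 came from a four-parameter fit of % inhibition.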

[2] = target: HCoV-229E Mpro (Human coronavirus 229E, UniProt P0C6X1); experiment: HCoV-229E Mpro enzymatic inhibition assay (fluorescence); format: biochemical
[3] = target: HCoV-HKU1 Mpro (Human coronavirus HKU1, UniProt P0C6X2); experiment: HCoV-HKU1 Mpro enzymatic inhibition assay (fluorescence); format: biochemical
Method in brief: (§1)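 Recombinant Mpro from E. coli was pre-incubated with compound (3-fold, 10-point dilutions, duplicates) for 30 min at room temperature, then fluorogenic peptide substrate was added and fluorescence read at Ex/Em 340/490 nm after 60 min at 30 °C. IC50 came from four-parameter fits of background-corrected inhibition.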

[4] = target: MERS Mpro (Middle East respiratory syndrome-related coronavirus, UniProt K9N7C7); experiment: biochemical; set-up: species or system MERS-CoV
[5] = target: HCoV-NL63 Mpro (Human coronavirus NL63, UniProt P0C6X5); experiment: HCoV-NL63 Mpro enzymatic inhibition assay (fluorescence); format: biochemical
Method in brief: as §1

[6] = target: HCoV-OC43 Mpro (Human coronavirus OC43, UniProt P0C6X6); experiment: HCoV-OC43 Mpro enzymatic inhibition assay (fluorescence); format: biochemical
Method in brief: as §1

[7] = target: SARS-CoV-1 Mpro (Severe acute respiratory syndrome coronavirus, UniProt P0C6X7); experiment: biochemical
[8] = mean, 25 nM protein, 25 μM substrate, 30 min pre-incubation, 60 min at 30° C., read-out: Mpro_SARS-CoV-2 mean IC50

HCoV-229E Mpro, sequence (P0C6X1 2966-3267 limits assumed): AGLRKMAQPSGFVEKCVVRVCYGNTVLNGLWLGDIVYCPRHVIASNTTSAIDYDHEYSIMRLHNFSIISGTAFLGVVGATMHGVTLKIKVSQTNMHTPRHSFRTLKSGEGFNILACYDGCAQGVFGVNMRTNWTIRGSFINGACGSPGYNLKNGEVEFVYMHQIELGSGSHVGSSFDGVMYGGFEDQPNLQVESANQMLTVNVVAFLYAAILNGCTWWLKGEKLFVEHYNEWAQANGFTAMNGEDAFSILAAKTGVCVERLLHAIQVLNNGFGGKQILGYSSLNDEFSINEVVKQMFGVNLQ
HCoV-OC43 Mpro, sequence (P0C6X6 3247-3549 limits assumed): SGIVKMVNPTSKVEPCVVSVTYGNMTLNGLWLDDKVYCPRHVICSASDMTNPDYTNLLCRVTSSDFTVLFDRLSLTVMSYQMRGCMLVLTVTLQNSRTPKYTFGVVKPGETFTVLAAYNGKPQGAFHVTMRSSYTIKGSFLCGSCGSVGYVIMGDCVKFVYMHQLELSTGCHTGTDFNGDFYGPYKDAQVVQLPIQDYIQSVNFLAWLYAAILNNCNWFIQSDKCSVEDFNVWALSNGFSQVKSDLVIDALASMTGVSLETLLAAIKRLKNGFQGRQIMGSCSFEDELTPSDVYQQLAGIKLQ
HCoV-NL63 Mpro, sequence (P0C6X5 2940-3242 limits assumed): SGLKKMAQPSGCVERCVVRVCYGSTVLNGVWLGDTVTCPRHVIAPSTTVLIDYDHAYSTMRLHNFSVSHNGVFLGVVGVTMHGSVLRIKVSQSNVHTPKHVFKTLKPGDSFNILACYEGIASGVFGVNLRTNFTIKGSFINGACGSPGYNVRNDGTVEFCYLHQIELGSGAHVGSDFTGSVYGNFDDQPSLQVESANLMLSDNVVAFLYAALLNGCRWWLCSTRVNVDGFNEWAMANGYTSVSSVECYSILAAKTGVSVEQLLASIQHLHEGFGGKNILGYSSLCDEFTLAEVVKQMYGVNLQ
MERS Mpro, sequence (K9N7C7 3248-3553 limits assumed): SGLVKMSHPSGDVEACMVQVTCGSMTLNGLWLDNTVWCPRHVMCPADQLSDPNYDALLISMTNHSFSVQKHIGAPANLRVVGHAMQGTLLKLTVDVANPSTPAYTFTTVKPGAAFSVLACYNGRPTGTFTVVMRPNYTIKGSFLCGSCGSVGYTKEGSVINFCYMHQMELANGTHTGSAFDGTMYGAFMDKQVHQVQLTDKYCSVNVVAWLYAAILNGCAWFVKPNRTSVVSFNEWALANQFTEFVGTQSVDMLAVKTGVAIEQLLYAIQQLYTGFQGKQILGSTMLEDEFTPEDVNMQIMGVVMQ
HCoV-HKU1 Mpro, sequence (P0C6X2 3335-3637 limits assumed): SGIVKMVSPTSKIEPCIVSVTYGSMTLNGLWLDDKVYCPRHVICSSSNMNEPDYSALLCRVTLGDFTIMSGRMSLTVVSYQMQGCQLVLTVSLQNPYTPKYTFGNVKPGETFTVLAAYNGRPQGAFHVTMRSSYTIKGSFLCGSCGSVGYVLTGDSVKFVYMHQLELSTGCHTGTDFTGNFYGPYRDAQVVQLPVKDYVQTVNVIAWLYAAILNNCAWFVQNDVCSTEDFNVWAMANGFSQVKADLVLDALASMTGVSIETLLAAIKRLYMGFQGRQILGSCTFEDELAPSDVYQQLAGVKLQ

| Compound | IC50 [1] [µM] | IC50 [2] [µM] | IC50 [3] [µM] | IC50 [4] [µM] | IC50 [5] [µM] | IC50 [6] [µM] | IC50 [7] [µM] | IC50 [1, 8] [µM] |
| --- | --- | --- | --- | --- | --- | --- | --- | --- |
| Cc1ccc2[nH]c(C(=O)N3C[C@H]4[C@@H]([C@H]3C(=O)N[C@H](C=O)C[C@@H]3CCNC3=O)C4(C)C)cc2c1 [Compound 93, (1R,2S,5S)-6,6-Dimethyl-3-(5-methyl-1H-indole-2-carbonyl)-N—((S)-1-oxo-3-((S)-2-oxopyrrolidin-3-yl)propan-2-yl)-3-azabicyclo[3.1.0]hexane-2-carboxamide] | 0.0451 | 0.0329 | 0.024 | 0.317 | 0.0532 | 0.0551 | 0.0732 |  |
| CC1(C)[C@@H]2[C@@H](C(=O)N[C@H](C=O)C[C@@H]3CCNC3=O)N(C(=O)C3(O)CCCCC3)C[C@@H]21 [Compound 94, (1R,2S,5S)-3-(1-Hydroxycyclohexanecarbonyl)-6,6-dimethyl-N—((S)-1-oxo-3-((S)-2-oxopyrrolidin-3-yl)propan-2-yl)-3-azabicyclo[3.1.0]hexane-2-carboxamide] |  | 0.0699 | 0.18 | 0.568 | 0.344 | 0.231 | 0.115 | 0.0451 |
| CC(C)(C)CC(=O)N1C[C@H]2[C@@H]([C@H]1C(=O)N[C@H](C=O)C[C@@H]1CCNC1=O)C2(C)C [Compound 95, (1R,2S,5S)-3-(3,3-Dimethylbutanoyl)-6,6-dimethyl-N—((S)-1-oxo-3-((S)-2-oxopyrrolidin-3-yl)propan-2-yl)-3-azabicyclo[3.1.0]hexane-2-carboxamide] |  | 0.0675 | 0.0644 | 0.413 | 0.189 | 0.124 | 0.1 | 0.0455 |
| CC1(C)[C@@H]2[C@@H](C(=O)N[C@H](C=O)C[C@@H]3CCNC3=O)N(C(=O)c3cc4c(Cl)cc(Cl)cc4[nH]3)C[C@@H]21 [Compound 97, (1R,2S,5S)-3-(4,6-Dichloro-1H-indole-2-carbonyl)-6,6-dimethyl-N—((S)-1-oxo-3-((S)-2-oxopyrrolidin-3-yl)propan-2-yl)-3-azabicyclo[3.1.0]hexane-2-carboxamide] | 0.0499 | 0.046 | 0.027 | 0.395 | 0.0889 | 0.072 | 0.0754 |  |
| O=C[C@H](C[C@@H]1CCNC1=O)NC(=O)[C@@H]1C[C@@H](F)CN1C(=O)c1cc2ccccc2[nH]1 [Compound 98, (2S,4R)-4-fluoro-1-(1H-Indole-2-carbonyl)-N—((S)-1-oxo-3-((S)-2-oxopyrrolidin-3-yl)propan-2-yl)pyrrolidine-2-carboxamide] | 0.0511 | 0.057 | 0.007 | 0.518 | 0.105 | 0.081 | 0.206 |  |
| Cn1c(C(=O)N2C[C@H]3[C@@H]([C@H]2C(=O)N[C@H](C=O)C[C@@H]2CCNC2=O)C3(C)C)cc2c(F)cccc21 [Compound 100, (1R,2S,5S)-3-(4-Fluoro-1-methyl-1H-indole-2-carbonyl)-6,6-dimethyl-N—((S)-1-oxo-3-((S)-2-oxopyrrolidin-3-yl)propan-2-yl)-3-azabicyclo[3.1.0]hexane-2-carboxamide] | 0.054 | 0.106 | 0.0944 | 0.877 | 0.398 | 0.133 | 0.0925 |  |
| CO[C@H]1C[C@@H](C(=O)N[C@H](C=O)C[C@@H]2CCNC2=O)N(C(=O)c2cc3ccccc3[nH]2)C1 [Compound 102, (2S,4S)-1-(1H-Indole-2-carbonyl)-4-methoxy-N—((S)-1-oxo-3-((S)-2-oxopyrrolidin-3-yl)propan-2-yl)pyrrolidine-2-carboxamide] | 0.0632 | 0.118 | 0.083 | 0.631 | 0.199 | 0.141 | 0.204 |  |
| C[C@H](C(=O)N1C[C@H]2[C@@H]([C@H]1C(=O)N[C@H](C=O)C[C@@H]1CCNC1=O)C2(C)C)c1ccccc1 [Compound 104, (1R,2S,5S)-6,6-Dimethyl-N—((S)-1-oxo-3-((S)-2-oxopyrrolidin-3-yl)propan-2-yl)-3-((S)-2-phenylpropanoyl)-3-azabicyclo[3.1.0]hexane-2-carboxamide] |  | 0.116 | 0.109 | 0.684 | 0.861 | 0.197 | 0.114 | 0.0651 |
| O=C[C@H](C[C@@H]1CCNC1=O)NC(=O)[C@@H]1[C@H]2C[C@H](F)[C@H](C2)N1C(=O)c1cc2ccccc2[nH]1 [Compound 106, (1S,3S,4R,6S)-6-Fluoro-2-(1H-indole-2-carbonyl)-N—((S)-1-oxo-3-((S)-2-oxopyrrolidin-3-yl)propan-2-yl)-2-azabicyclo[2.2.1]heptane-3-carboxamide] | 0.0737 | 0.0912 | 0.0397 | 0.859 | 0.156 | 0.118 | 0.176 |  |
| C[C@@H]1C[C@@H](C(=O)N[C@H](C=O)C[C@@H]2CCNC2=O)N(C(=O)c2cc3ccccc3[nH]2)C1 [Compound 107, (2S,4R)-1-(1H-Indole-2-carbonyl)-4-methyl-N—((S)-1-oxo-3-((S)-2-oxopyrrolidin-3-yl)propan-2-yl)pyrrolidine-2-carboxamide] | 0.077 | 0.0442 | 0.0465 | 0.522 | 0.062 | 0.195 | 0.186 |  |
| C=C1C[C@@H](C(=O)N[C@H](C=O)C[C@@H]2CCNC2=O)N(C(=O)c2cc3ccccc3[nH]2)C1 [Compound 108, (S)-1-(1H-Indole-2-carbonyl)-4-methylene-N—((S)-1-oxo-3-((S)-2-oxopyrrolidin-3-yl)propan-2-yl)pyrrolidine-2-carboxamide] | 0.0785 | 0.048 | 0.029 | 0.291 | 0.038 | 0.193 | 0.159 |  |
| O=C[C@H](C[C@@H]1CCNC1=O)NC(=O)[C@@H]1C[C@@H](Cc2ccccc2Cl)CN1C(=O)c1cc2ccccc2[nH]1 [Compound 109, (2S,4R)-4-(2-Chlorobenzyl)-1-(1H-indole-2-carbonyl)-N—((S)-1-oxo-3-((S)-2-oxopyrrolidin-3-yl)propan-2-yl)pyrrolidine-2-carboxamide] | 0.0808 | 0.374 | 0.0489 | 4.32 | 2.33 | 0.271 | 0.231 |  |
| CC1CC(C(=O)N2C[C@H]3[C@@H]([C@H]2C(=O)N[C@H](C=O)C[C@@H]2CCNC2=O)C3(C)C)C1 (stereo partly drawn) [Compound 110, (1R,2S,5S)-6,6-Dimethyl-3-(3-methylcyclobutanecarbonyl)-N—((S)-1-oxo-3-((S)-2-oxopyrrolidin-3-yl)propan-2-yl)-3-azabicyclo[3.1.0]hexane-2-carboxamide] |  | 0.105 | 0.23 | 1.16 | 1.59 | 0.318 | 0.205 | 0.0822 |
| CCOc1ccc2[nH]c(C(=O)N3C[C@H]4[C@@H]([C@H]3C(=O)N[C@H](C=O)C[C@@H]3CCNC3=O)C4(C)C)cc2c1 [Compound 111, (1R,2S,5S)-3-(5-Ethoxy-1H-indole-2-carbonyl)-6,6-dimethyl-N—((S)-1-oxo-3-((S)-2-oxopyrrolidin-3-yl)propan-2-yl)-3-azabicyclo[3.1.0]hexane-2-carboxamide] | 0.0841 | 0.0833 | 0.0733 | 0.866 | 0.135 | 0.169 | 0.119 |  |
| N#C[C@@H]1C[C@@H](C(=O)N[C@H](C=O)C[C@@H]2CCNC2=O)N(C(=O)c2cc3ccccc3[nH]2)C1 [Compound 112, (2S,4R)-4-Cyano-1-(1H-indole-2-carbonyl)-N—((S)-1-oxo-3-((S)-2-oxopyrrolidin-3-yl)propan-2-yl)pyrrolidine-2-carboxamide] | 0.0846 | 0.149 | 0.12 | 2.76 | 0.503 | 0.39 | 0.244 |  |
| O=C[C@H](C[C@@H]1CCNC1=O)NC(=O)[C@@H]1C[C@@H]2CCCC[C@@H]2N1C(=O)c1cc2ccccc2[nH]1 [Compound 113, (2S,3aS,7aS)-1-(1H-Indole-2-carbonyl)-N—((S)-1-oxo-3-((S)-2-oxopyrrolidin-3-yl)propan-2-yl)octahydro-1H-indole-2-carboxamide] | 0.0916 | 0.0332 | 0.0284 | 0.581 | 0.0357 | 0.0793 | 0.339 |  |
| COc1cc2cc(C(=O)N3C[C@H]4[C@@H]([C@H]3C(=O)N[C@H](C=O)C[C@@H]3CCNC3=O)C4(C)C)[nH]c2cc1OC [Compound 114, (1R,2S,5S)-3-(5,6-dimethoxy-1H-Indole-2-carbonyl)-6,6-dimethyl-N—((S)-1-oxo-3-((S)-2-oxopyrrolidin-3-yl)propan-2-yl)-3-azabicyclo[3.1.0]hexane-2-carboxamide] | 0.0973 | 0.0562 | 0.0306 | 0.429 | 0.0993 | 0.0779 | 0.149 |  |
